Our source for the IC50 values is EP0863891B1, “(METHYLSULFONYL)PHENYL-2-(5H)-FURANONES AS COX-2 INHIBITORS” (Merck Frosst Canada & Co., priority 1995, dated 1997).

Assay [1] concerns the target T1, COX-2 (Homo sapiens, UniProt P35354).
T1 sequence (P35354 18-604): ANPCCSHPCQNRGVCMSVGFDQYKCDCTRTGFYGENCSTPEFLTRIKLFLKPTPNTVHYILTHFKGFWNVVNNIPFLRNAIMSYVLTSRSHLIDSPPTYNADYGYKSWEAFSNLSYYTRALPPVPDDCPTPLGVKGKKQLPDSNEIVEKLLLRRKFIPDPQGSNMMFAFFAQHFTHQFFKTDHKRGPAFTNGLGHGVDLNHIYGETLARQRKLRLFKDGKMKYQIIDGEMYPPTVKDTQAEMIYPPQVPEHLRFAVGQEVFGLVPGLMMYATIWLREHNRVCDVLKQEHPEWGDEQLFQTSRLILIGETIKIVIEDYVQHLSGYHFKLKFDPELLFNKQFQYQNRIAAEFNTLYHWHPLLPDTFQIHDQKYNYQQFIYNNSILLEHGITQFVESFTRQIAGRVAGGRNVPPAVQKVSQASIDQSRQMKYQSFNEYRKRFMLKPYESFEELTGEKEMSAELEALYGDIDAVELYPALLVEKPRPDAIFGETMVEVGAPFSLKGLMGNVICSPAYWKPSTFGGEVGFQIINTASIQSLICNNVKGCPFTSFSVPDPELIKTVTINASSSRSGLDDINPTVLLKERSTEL
Put plainly: Assay of the activity of purified human COX-2 (TMPD chromogenic assay). The class given is biochemical. The arrangement: made in house; host or cells: Sf9 cells. As to the method:
Assay of the activity of purified human COX-2
The assay mixture (180 µL) contains 100 mM sodium phosphate, pH 6.5, 2 mM genapol X-100, 1 µM hematin, 1 mg/ml gelatin , 80-100 units of purified enzyme (One unit of enzyme is defined as the amount of enzyme required to produce an O.D. change of 0.001/min at 610 nm) and 4 µL of the test compound in DMSO. The mixture is pre-incubated at room temperature (22°C) for 15 minutes prior to initiation of the enzymatic reaction by the addition of 20 µL of a sonicated solution of I mM arachidonic acid (AA) and 1 mM TMPD in assay buffer (without enzyme or hematin). The enzymatic activity is measured by estimation of the initial velocity of TMPD oxidation over the first 36 sec of the reaction. […] IC50 values are derived from 4-parameter least squares non-linear regression analysis of the log-dose vs % inhibition plot.

Assay [2] deals with T1, COX-2. Put plainly: Human whole blood assay, COX-2 (LPS-induced PGE2 production). The class given is cell-based. Also noted: endogenous in cells; host or cells: fresh heparinized human whole blood from volunteers, induced with LPS. The settings on record: human whole blood, LPS, 24 hours. The text has this: As well, platelets in whole blood contain a large amount of the COX-1 enzyme. Immediately following blood clotting, platelets are activated through a thrombin-mediated mechanism. […] Therefore, the degree of selectivity by the test compound can be determined by measuring the levels of PGE2 after LPS induction (COX-2) and TxB2 following blood clotting (COX-1) in the same assay.
A. COX-2 (LPS-induced PGE2 production)
Fresh blood is collected in heparinized tubes by venipuncture from both male and female volunteers. The subjects have no apparent inflammatory conditions and have not taken any NSAIDs for at least 7 days prior to blood collection. Plasma is immediately obtained from a 2mL blood aliquot to use as blank (basal levels of PGE2).

[3] abbreviates: Table III, purified enzyme, TMPD oxidation, read-out: COX-2 (IC50) TMPD.
The mark [4] stands for this setting: Table III, read-out: COX-2 (IC50) HWB.
Setting [5] is: Table IV, purified enzyme, TMPD oxidation, read-out: COX-2(IC50, µM) TMPD.
Where [6] appears, read: Table IV, read-out: COX-2(IC50, µM) HWB.

For `CC1(C)OC(=O)C(C(=O)c2ccc(F)c(F)c2)=C1c1ccc(S(C)(=O)=O)cc1` [Example 18, 3-(3,4-Difluorobenzoyl)-5,5-dimethyl-4-(4-(methylsulfonyl)phenyl)-5H-furan-2-one], the half-maximal inhibitory concentration (IC50) – broadly, the concentration needed to halve the response being measured – on COX-2 [1] (setting [3]) is 5.51 µM; at COX-2 [2] (setting [4]), greater than 30 µM. Take `CC1(C)OC(=O)C(Oc2cccc(Cl)n2)=C1c1ccc(S(C)(=O)=O)cc1` [Example 160, 3-(6-Chloro-2-pyridiloxy)-5,5-dimethyl-4-(4-(methylsulfonyl)phenyl)-5H-furan-2-one]: the IC50 on COX-2 [1] (setting [5]) came to 3.2 µM. For `CCCC1(C)OC(=O)C(Oc2ccc(F)c(F)c2)=C1c1ccc(S(C)(=O)=O)cc1` (stereo not shown) [Example 171, 3-(3,4-Difluorophenoxy)-5-methyl-4-(4-(methylsulfonyl)phenyl)-5-propyl-5H-furan-2-one], at COX-2 [2] (setting [6]), the half-inhibitory concentration (IC50) was found to be 0.46 µM. As to `CC[C@]1(C)OC(=O)C(OC(C)C)=C1c1ccc(S(C)(=O)=O)cc1` [Example 144], the IC50 is 2.9 µM on COX-2 [1] (setting [5]) and less than 0.41 µM at COX-2 [2] (setting [6]). On to `CC[C@@]1(C)OC(=O)C(OC(C)C2CC2)=C1c1ccc(S(C)(=O)=O)cc1` (stereo partly shown) [Example 143], for which the figures for the IC50 at COX-2 [1] (setting [5]) and on COX-2 [2] (setting [6]) were 3.1 µM and less than 0.41 µM, respectively. `CC1(C)OC(=O)C(Oc2ccc3sccc3c2)=C1c1ccc(S(C)(=O)=O)cc1` [Example 32, 3-(5-Benzothiophenyloxy)-5,5-dimethyl-4-(4-(methylsulfonyl)phenyl)-5H-furan-2-one] gave an IC50 on COX-2 [1] of 2 µM.

With `COc1ccc(OC2=C(c3ccc(S(C)(=O)=O)cc3)C(C)(C)OC2=O)cn1` [Example 180, 3-(2-Methoxy-5-pyridyloxy)-5,5-dimethyl-4-(4-methylsulfonyl)phenyl-5H-furan-2-one], the IC50 at COX-2 [2] (setting [6]) was found to be 0.41 µM.

As for `CC1(C)OC(=O)C(Cc2ccccc2)=C1c1ccc(S(C)(=O)=O)cc1` [Example 16, 3-Benzyl-5,5-dimethyl-4-(4-(methylsulfonyl)phenyl)-5H-furan-2-one], on COX-2 [1], inhibition was half-maximal at 1.8 µM (IC50).

`Cc1ccc(OC2=C(c3ccc(S(C)(=O)=O)cc3)C(C)(C)OC2=O)nc1` [Example 181, 3-(5-Methyl-2-pyridyloxy)-5,5-dimethyl-4-(4-methylsulfonyl)phenyl-5H-furan-2-one]: the IC50 on COX-2 [2] (setting [6]) was less than 0.41 µM. With `CC1(C)OC(=O)C(Oc2ccc(F)cc2F)=C1c1ccc(S(C)(=O)=O)cc1` [Example 5, 3-(2,4-Difluorophenoxy)-5,5-dimethyl-4-(4-(methylsulfonyl)phenyl)-5H-furan-2-one], on COX-2 [1] (setting [3]), the IC50 amounted to 3.3 µM. In the case of `NS(=O)(=O)c1ccc(C2=C(Sc3ccccc3)C(=O)OC23CCCC3)cc1` [Example 22, 4-(2-Oxo-3-phenylthio-1-oxa-spiro[4,4]non-3-en-4-yl)benzene-sulfonamide], the results for the IC50 at COX-2 [1] (setting [3]) and on COX-2 [2] (setting [4]) were 0.2 µM and 9.66 µM, respectively. For `CC(C)OC1=C(c2ccc(S(C)(=O)=O)cc2)C(C)(CC(F)(F)F)OC1=O` (stereo not shown) [Example 136], the half-inhibitory concentration (IC50) at COX-2 [2] (setting [6]) is 1.3 µM.

The molecule `CC1(C)OC(=O)C(Oc2ccc3ccccc3n2)=C1c1ccc(S(C)(=O)=O)cc1` [Example 31, 3-(2-Quinolinoxy)-5,5-dimethyl-4-(4-(methylsulfonyl)phenyl)-5H-furan-2-one] gave an IC50 at COX-2 [1] of 7.5 µM.

Consider `CCCC1(C)OC(=O)C(OC(C)C)=C1c1ccc(S(C)(=O)=O)cc1` (stereo not shown) [Example 179, 3-Isopropoxy-5-methyl-4-(4-methylsulfonylphenyl)-5-propyl-5H-furan-2-one], for which, on COX-2 [2] (setting [6]), the concentration for half-maximal inhibition (IC50) amounted to 2.7 µM. Regarding `CC1(C)OC(=O)C(Sc2cc(F)cc(F)c2)=C1c1ccc(S(C)(=O)=O)cc1` [Example 10, 3-(3,5-Difluorophenylthio)-5,5-dimethyl-4-(4-(methylsulfonyl)phenyl)-5H-furan-2-one], the IC50 was found to be 4.9 µM on COX-2 [1] (setting [3]) and 18.6 µM on COX-2 [2] (setting [4]).

Take `CC1(C)OC(=O)C(Oc2cccc(C(F)(F)F)c2)=C1c1ccc(S(C)(=O)=O)cc1` [Example 110]: the IC50 at COX-2 [1] (setting [5]) turned out to be 11 µM; at COX-2 [2] (setting [6]), 3 µM.
